Assay results reported in the supplement of paper PMC10331698.
± gives the standard deviation of the averaged measurements.

Experiments:
Assay in all cases: level (log10 ratio to DMSO vehicle control); higher = higher biomarker level / cell amount than vehicle control
Methotrexate = compound: CN(Cc1cnc2nc(N)nc(N)c2n1)c1ccc(C(=O)N[C@@H](CCC(=O)O)C(=O)O)cc1 [Methotrexate]; conditions: in DMSO
Protocol: (§1)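 BioMAP Diversity Plus panel of 12 human primary cell co-culture systems (3C, 4H, LPS, SAg, BT, BF4T, BE3C, CASM3C, HDF3CGF, KF3CT, MyoF, Mphg). Compounds were added 1 h before stimulation and left for 24 h (MyoF 48 h; BT 72 h for soluble read-outs or 6 d for IgG). Biomarkers were read by ELISA, cytotoxicity by SRB, PBMC viability and proliferation by Alamar Blue. Each well value was divided by the mean of 8 DMSO control wells on the same plate and log10 transformed; duplicate blinded samples were tested at 4 concentrations.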

[1] = compound: FC(F)(I)C(F)(F)C(F)(F)C(F)(F)C(F)(F)C(F)(F)I [1,6-Diiodoperfluorohexane]; conditions: 6700 nM; in DMSO
Protocol: as §1

[2] = compound: O=C(Cl)C(F)(F)C(F)(F)C(F)(F)C(=O)Cl [Hexafluoroglutaryl chloride]; conditions: in DMSO
Protocol: as §1

Tetrafluorosuccinic acid = compound: O=C(O)C(F)(F)C(F)(F)C(=O)O [Tetrafluorosuccinic acid]; conditions: in DMSO
Protocol: as §1

[3] = compound: O=S(=O)(O)CCC(F)(F)C(F)(F)C(F)(F)C(F)(F)F [4:2 Fluorotelomer sulfonic acid]; conditions: in DMSO
Protocol: as §1

Perfluoropinacol = compound: OC(C(F)(F)F)(C(F)(F)F)C(O)(C(F)(F)F)C(F)(F)F [Perfluoropinacol]; conditions: in DMSO
Protocol: as §1

[4] = compound: OCC(F)(F)C(F)(F)C(F)(F)C(F)(F)C(F)(F)C(F)(F)F [6:1 Fluorotelomer alcohol]; conditions: in DMSO
Protocol: as §1

Test System	level (log10) (Methotrexate; 1500 nM)	level (log10) (Methotrexate; 4400 nM)	level (log10) (Methotrexate; 13000 nM)	level (log10) (Methotrexate; 40000 nM)	level (log10) [1]	level (log10) ([2]; 6700 nM)	level (log10) ([2]; 20000 nM)	level (log10) ([2]; 60000 nM)	level (log10) (Tetrafluorosuccinic acid; 6700 nM)	level (log10) (Tetrafluorosuccinic acid; 20000 nM)	level (log10) (Tetrafluorosuccinic acid; 60000 nM)	level (log10) ([3]; 6700 nM)	level (log10) ([3]; 20000 nM)	level (log10) ([3]; 60000 nM)	level (log10) (Perfluoropinacol; 6700 nM)	level (log10) (Perfluoropinacol; 20000 nM)	level (log10) ([4]; 6700 nM)	level (log10) ([4]; 20000 nM)	level (log10) ([4]; 60000 nM)
HDF3CGF:PAI-I	-0.0705 ± 0.14	-0.0725 ± 0.079	-0.0445 ± 0.079	-0.081 ± 0.16	-0.662	-0.05 ± 0.073	-0.0215 ± 0.083	-0.0155 ± 0.043	-0.0295 ± 0.0078	-0.009 ± 0.0014	0.003 ± 0.037	0.0085 ± 0.044	-0.011 ± 0.014	-0.02 ± 0.021	-0.0325 ± 0.012	-0.117 ± 0.0021	0.006 ± 0.018	0.0105 ± 0.026	-0.103 ± 0.18
HDF3CGF:Proliferation 72hr	-0.0885 ± 0.042	-0.076 ± 0.13	-0.0515 ± 0.036	-0.083 ± 0.05	-0.919	0.001 ± 0.0042	-0.0005 ± 0.012	-0.0095 ± 0.019	-0.08 ± 0.076	-0.135 ± 0.061	-0.0935 ± 0.069	-0.022 ± 0.092	0.001 ± 0.021	-0.007 ± 0.047	-0.183 ± 0.044	-0.39 ± 0.05	-0.0265 ± 0.033	0.003 ± 0.011	-0.87 ± 0.098
HDF3CGF:SRB	0.018 ± 0.034	-0.0135 ± 0.0035	0.025 ± 0.011	0.014 ± 0.016	-0.644	-0.004 ± 0.0085	0.0295 ± 0.0035	0.007 ± 0.014	-0.0125 ± 0.011	-0.013 ± 0.03	0.007 ± 0.044	-0.0365 ± 0.037	-0.0075 ± 0.033	0.033 ± 0.058	-0.027 ± 0.0042	-0.0055 ± 0.039	0.0015 ± 0.067	-0.003 ± 0.025	-0.139 ± 0.13
HDF3CGF:TIMP-1	-0.08 ± 0.073	-0.047 ± 0.082	-0.0525 ± 0.14	-0.0755 ± 0.1	-0.077	0.002 ± 0.014	0.012 ± 0.025	0.0395 ± 0.05	-0.05 ± 0.023	-0.017 ± 0.0042	-0.0155 ± 0.035	-0.0045 ± 0.047	-0.0015 ± 0.00071	0.0035 ± 0.084	0.015 ± 0.027	0.0205 ± 0.032	-0.009 ± 0.0085	-0.022	-0.014 ± 0.027
HDF3CGF:TIMP-2	-0.0655 ± 0.032	0 ± 0.11	-0.005 ± 0.085	-0.0335 ± 0.15	-0.012	-0.0215 ± 0.086	-0.0155 ± 0.088	-0.025 ± 0.075	-0.052 ± 0.042	-0.069 ± 0.025	-0.1 ± 0.018	-0.026 ± 0.0028	-0.0335 ± 0.016	-0.009 ± 0.051	-0.0625 ± 0.005	-0.126 ± 0.0021	0.004 ± 0.0099	-0.0195 ± 0.0064	-0.0905 ± 0.17
KF3CT:CCL2/MCP-1	0.052 ± 0.023	-0.0125 ± 0.03	-0.016 ± 0.024	0.0165 ± 0.0021	-0.251	-0.021 ± 0.016	-0.007 ± 0.017	0.0075 ± 0.016	-0.05 ± 0.0085	-0.042 ± 0.021	-0.0065 ± 0.07	-0.0205 ± 0.012	-0.0125 ± 0.012	-0.0015 ± 0.025	0.0955 ± 0.013	0.211 ± 0.024	0.012 ± 0.0014	0.009 ± 0.0099	-0.007 ± 0.0085
